Test results published in patent US20260375146A1, “COMBINATION OF COMPOUNDS FOR DEVELOPING IN VITRO MODELS OF THE BLOOD-BRAIN BARRIER” (HUN-REN SZEGEDI BIOLÓGIAI KUTATÓKÖZPONT, priority 2023, published 2026).
Where two headings read alike, the source gives them in different places.

How the values were obtained:
[1] = tested on: central nervous system; settings: route of penetration across the BBB; cited from earlier work
[2] = tested on: Wnt/β-catenin signaling; assay: Pharmacological inhibition of Wnt/β-catenin signaling, barrier integrity by impedance; assay type: cell-based, human; settings: for interference with basal barrier integrity: no combination treatment, titrated inhibitor; for reduction of the effect of cAMP+Ro+LiCl+A83-01 on barrier integrity (impedance): role: inhibitor, ICG-001 5 μM or XAV 939 1 μM, co-treatment 48 h
Procedure: (§1) Real-time, label-free measurement of barrier integrity was performed in 96-well plates with integrated gold electrodes (E-plate 96: Agilent, cat #300600910) using an xCELLigence RTCA SP device (Agilent). Plates were coated with 0.2% gelatin (Sigma-Aldrich, cat #G2500) and the cell-free background was measured in culture medium for each well. Then, ECs were seeded in the plates at a density of 6×10^3 cells/well and grown until fully confluent, while receiving 50% PC-conditioned medium to acquire brain-like properties. […] For combinatorial treatments, the following concentrations were used: cAMP 250 µM, Ro […], Wnt-3a 300 ng/mL, Wnt-7a 300 ng/mL, LiCl 3 mM, RepSox 10 μM and A83-01 3 μM. For all further experiments on human ECs, combination of cAMP+Ro+LiCl+A83-01 treatment consisted of 250 μM cAMP+17.5 μM Ro+3 mM LiCl+3 μM A83-01. The readout of impedance measurements is cell index, a dimensionless parameter which correlates with the strength of cell-cell contacts and cell adhesion. Cell index was defined as Zn-Z0, where Zn is the impedance at time point n and Zo is the impedance of the cell-free background in each well. Cell index values were normalized to the last time point before treatment.
Wnt/β-catenin signaling was blocked at two different points using inhibitors ICG-001 (MedChemExpress, cat #HY-14428) and XAV 939 (MedChemExpress, cat #HY-15147). For the measurement of barrier integrity by impedance. ECs were cultured as described above. Confluent monolayers were treated with ICG-001 […] for 48 h at 37 °C, and impedance was measured at 10 kHz every 5 min using the xCELLigence RTCA SP device (Agilent) as described above. […] For the measurement of TEER and tracer permeability, EC-PC co-cultures were assembled and maintained as described above. On day 4, the luminal (blood) side of the model was incubated with the combination of cAMP+Ro+LiC+A83-01 or control medium supplemented with either 5 μM ICG-001 or 1 μM XAV 939 for 48 h at 37 °C. TEER and tracer permeability were then measured and calculated as described above.

[3] = tested on: Wnt/β-catenin signaling; settings: role: inhibitor; cited from earlier work
[4] = tested on: EC-PC co-culture BBB model; assay: Penetration of small molecule drugs across the BBB co-culture model; settings: 1 μM drug; cAMP+Ro+LiCl+A83-01 vs control
Procedure: Assembly, maintenance and treatment of co-cultures were performed as described above. […] In B-A direction, samples from both compartments were collected at 60 min. In A-B direction, inserts were transferred to a new well with fresh buffer at 30 min, then at the end of the assay samples were collected from the donor (0-60 min) and acceptor compartments (0-30 min, 30-60 min). […] Drug concentrations were determined by standard calibration curves.
where CA is the concentration measured in the acceptor compartment, VA is the volume of the acceptor compartment (1.5 mL) and CD is the treatment concentration in the donor compartment at a given timepoint. […] Papp was then calculated as: […]
where A is the surface area of the insert available for permeability (1.12 cm^2). Efflux ratio was calculated by dividing Papp values in B-A direction by Papp values in A-B direction.
where nA.30, nA.60 and nD.60 are the amounts of substance (pmol) in the accentor compartment at 30 and 60 min as well as the donor compartment at 60 min, respectively, and nT is the amount of substance (pmol) present at the treatment solution at 0 min. In vitro Kp,uu,brain was then calculated as: […]
where CT is the concentration of a drug in the treatment solution at 0 min, CD is the concentration in the donor compartment at 60 min and R is recovery. Calculation of Pearson r^2 and Spearman r coefficients using data referenced in the legend FIG. 5d was performed in GraphPad Prism software (version 5.0).

[5] = tested on: human stem cell-derived ECs; assay: Impedance-based measurement of barrier integrity, human ECs; assay type: cell-based
Procedure: as §1

[6] = tested on: stem cell-derived ECs; settings: cited from earlier work
[7] = tested on: EC monolayers; settings: alone, especially with astrocyte-conditioned medium; cited from earlier work
[8] = tested on: Wnt/β-catenin signaling; settings: in vitro; cited from earlier work
[9] = tested on: human stem cell-derived brain-like ECs; assay: Albumin internalization in ECs; assay type: cell-based; settings: MβCD 1 mM, 1 h
Procedure: ECs were cultured in 50% PC-conditioned medium on 35 mm glass bottom Petri dishes (Greiner Bio-One, cat #627860) coated with collagen IV (Sigma-Aldrich, cat #C5533, 100 ng/mL) and fibronectin (Sigma-Aldrich, cat #F1141, 25 μg/mL) at a seeding density of 5×10^4 cells/cm^2. […] After that, culture medium was removed and cells were incubated with Texas Red-conjugated BSA (TR-albumin; Invitrogen, cat #A23017, 5 μg/mL) dissolved in control medium for 2 h at 37 °C. For the final 20 minutes of incubation, Hoechst 33342 (Thermo Fisher, cat #H1399,2 μg/mL) was added to cells to counterstain nuclei. Cultures were washed twice in Ringer-HEPES supplemented with 1% FBS and live-cell imaging was performed immediately in the same buffer using a Leica TCS SP5 AOBS confocal laser scanning microscope equipped with a HCX PL APO 63× oil (NA=1.4) objective with the same parameters as described above. After live-cell imaging, cells were fixed with 3% paraformaldehyde for 15 min at room temperature and immunostained for caveolin-1 exactly as described above. […] Finally, ECs were lysed with 1% Triton X 100 in Milli-Q water and the fluorescent signal of internalized TR-albumin was quantified with a Fluorolog 3 spectrofluorometer (Horiba Jobin Yvon) at 592 nm excitation and 612 nm emission wavelengths. Concentrations of internalized TR-albumin were calculated using a standard calibration curve. […]

[10] = tested on: human endothelial cell and brain pericyte co-culture BBB model; assay: Early experiment: cAMP alone or with PDE4 inhibitor, normalized cell index; assay type: cell-based; settings: PDE4 inhibitor together with cAMP; in particular within first 24 hours; data not shown

For `Nc1nnc(-c2cccc(Cl)c2Cl)c(N)n1` [Lamotrigine], the BBB transport [1] is given as “Passive lipophilic”.

In the case of `Oc1nc(-c2ccc(C(F)(F)F)cc2)nc2c1CSCC2` [XAV 939], the “interference with basal barrier integrity” value [2] is listed as “do not interfere with basal barrier integrity”, the “reduction of the effect of cAMP+Ro+LiCl+A83-01 on barrier integrity (impedance)” value [2] is listed as “more potently reduced the effect of the combination of cAMP+Ro+LiCl+A83-01, almost to the level of cAMP+Ro treatment” and the “point of inhibition of Wnt signaling” value [3] is listed as “blocks the pathway upstream of nuclear translocation”.

In the case of `CC(C)NCC(O)COc1cccc2ccccc12` (stereo not shown) [Propranolol], the “permeability (Papp), blood-to-brain (A-B), change on combination treatment” value (“permeability … change on combination treatment” for short) [4] is given as “increased the permeability” and the BBB transport [1] is given as “Passive lipophilic”.

In the case of `Cc1cccc(-c2nn(C(=S)Nc3ccccc3)cc2-c2ccnc3ccccc23)n1` [A83-01, 3-(6-Methyl-2-pyridinyl)-N-phenyl-4-(4-quinolinyl)-1H-pyrazole-1-carbothioamide], the “enhancement of the effect of cAMP+Ro on barrier integrity (impedance)” value [5] is given as “did not enhance” and the junctional tightness [6] is given as “elevate junctional tightness”.

For `O=C1[C@H](Cc2ccc(O)cc2)N2C(=O)CCN(C(=O)NCc3ccccc3)[C@H]2CN1Cc1cccc2ccccc12` [ICG-001], the “interference with basal barrier integrity” value [2] is listed as “do not interfere with basal barrier integrity”, the “reduction of the effect of cAMP+Ro+LiCl+A83-01 on barrier integrity (impedance)” value [2] is listed as “moderately” and the “point of inhibition of Wnt signaling” value [3] is listed as “specifically inhibits the β-catenin-CREB-binding protein (CBP) interaction in the nucleus”.

In the case of `C=C[C@@]1(C)CC(=O)[C@]2(O)[C@@]3(C)[C@@H](O)CCC(C)(C)[C@@H]3[C@H](O)[C@H](OC(C)=O)[C@@]2(C)O1` [forskolin], the “resistance across EC monolayers” value [7] is listed as “increase resistance across EC monolayers”.

For `COc1ccc2c(c1)c(CC(=O)O)c(C)n2C(=O)c1ccc(Cl)cc1` [Indomethacin], the BBB transport [1] is listed as “Passive lipophilic”.

For `[Cl-].[Li+]` [LiCl, lithium chloride], the “enhancement of the effect of cAMP+Ro on barrier integrity (impedance)” value ([5]; added to cAMP+Ro) is given as “did not enhance” and the “induction of barrier properties” value [8] is given as “induce a subset of barrier properties”.

For “methyl-β-cyclodextrin [methyl-p-cyclodextrin]”, the “inhibition of albumin internalization (lipid raft/caveolin-mediated endocytosis)” value [9] was “sensitive”.

In the case of `Nc1c2c(nc3ccccc13)CCCC2` [Tacrine], the “permeability … change on combination treatment” value [4] is listed as “increased the permeability” and the BBB transport [1] is listed as “Influx”.

For `CN(C)C(=O)C(CCN1CCC(O)(c2ccc(Cl)cc2)CC1)(c1ccccc1)c1ccccc1` [Loperamide], the “efflux ratio, change on combination treatment” value (“efflux ratio, change” for short) [4] is given as “elevated”, the “permeability … change on combination treatment” value [4] is given as “lower permeability” and the BBB transport [1] is given as “Passive hydrophilic, efflux”.

In the case of `CCCCOc1cc(CC2CNC(=O)N2)ccc1OC` (stereo not shown) [Ro 20-1724, 4-(3-Butoxy-4-methoxybenzyl)imidazolidin-2-one], the “barrier integrity as normalized cell index, further increase over cAMP alone” value [10] is listed as “further increases barrier integrity” and the “resistance across EC monolayers” value [7] is listed as “increase resistance across EC monolayers”.

In the case of Methotrexate, the “efflux ratio, change” value [4] is given as “elevated” and the BBB transport [1] is given as “Efflux”.

For `Cc1cccc(-c2[nH]ncc2-c2ccc3ncccc3n2)n1` [RepSox], the junctional tightness ([6]; stem cell-derived ECs, via claudin-5) is given as “elevate junctional tightness”.

For `CC[C@]1(O)C[C@@H]2CN(CCc3c([nH]c4ccccc34)[C@@](C(=O)OC)(c3cc4c(cc3OC)N(C)[C@H]3[C@@](O)(C(=O)OC)[C@H](OC(C)=O)[C@]5(CC)C=CCN6CC[C@]43[C@@H]65)C2)C1` [Vinblastine], the “efflux ratio, change” value [4] is listed as “trend”, the “permeability … change on combination treatment” value [4] is listed as “lower permeability” and the BBB transport [1] is listed as “Efflux”.

For `O=C1Nc2cc(Br)ccc2C1=C1Nc2ccccc2C1=NO` [6-BIO, 6-bromoindirubin-3-oxim], the “induction of barrier properties” value [8] is listed as “induce a subset of barrier properties”.

For `O=C(O)c1ccccc1O` [Salicylic acid], the “permeability … change on combination treatment” value [4] is given as “lower permeability” and the BBB transport [1] is given as “Efflux, influx”.

In the case of `Cc1c[nH]c(-c2cnc(NCCNc3ccc(C#N)cn3)nc2-c2ccc(Cl)cc2Cl)n1` [CHIR99021], the “induction of barrier properties” value [8] is listed as “induce a subset of barrier properties”.

B1: Wnt-3a: recombinant human Wnt-3a protein (protein, UniProt P56704 19-352, looked up)
Protein Wnt-3a: SYPIWWSLAVGPQYSSLGSQPILCASIPGLVPKQLRFCRNYVEIMPSVAEGIKIGIQECQHQFRGRRWNCTTVHDSLAIFGPVLDKATRESAFVHAIASAGVAFAVTRSCAEGTAAICGCSSRHQGSPGKGWKWGGCSEDIEFGGMVSREFADARENRPDARSAMNRHNNEAGRQAIASHMHLKCKCHGLSGSCEVKTCWWSQPDFRAIGDFLKDKYDSASEMVVEKHRESRGWVETLRPRYTYFKVPTERDLVYYEASPNFCEPNPETGSFGTRDRTCNVSSHGIDGCDLLCCGRGHNARAERRREKCRCVFHWCCYVSCQECTRVYDVHTCK
For B1, the “induction of barrier properties” value [8] is given as “induce a subset of barrier properties”.
